# Where two headings read alike, the source gives them in different places.
# Experiments:
# [1] = tested on: WT and YAC128 cortical and striatal neurons; settings: 24 h
# Experimental: Mitochondrial membrane potential (Δψm) was assessed in cortical and striatal neurons using the positively changed fluorescent probe TMRM (tetramethylrhodamine methyl ester) (Thermo Fisher Sci., catalog no: T668) and in cortical/striatal co-cultures and lymphoblasts using an equivalent probe, TMRE (tetramethylrhodamine ethyl ester) (Abcam, catalog no. ab113852).
# Under these conditions, retention of TMRM by mitochondria was studied to estimate changes in Δψm. […] TMRM release was calculated based in the differences in fluorescence before and after addition of oligomycin/FCCP.
# [2] = tested on: STHdh^Q7/7 cells expressing Htt96Q-mCherry or Htt20Q-mCherry
# Experimental: (§1) Transfections of HEK 293 cells were carried out according to the calcium phosphate method. STHdh^Q7/7 cells are a murine striatal cell line with a stable knock-in of the full-length wild type (WT) human Htt containing a polyglutamine stretch of 7 glutamines (Trettel et al. 2000). […] No cell line used is listed as a commonly misidentified cell line. Cell lines were not authenticated. To reduce any risk of cross-contamination they were grown for a limited number of passages. Transient transfections of NIH 3T3 and STHdh^Q7/7 cells were performed using an MP-100 Microporator (Digital Bio) or ViaFect™ Transfection Reagent (Cat.No. E4981) (Promega), according to the manufacturer's protocols.
# (§2) Briefly, cells grown for 24 h after transfection on coverslips in 24-well plates were fixed with 3% paraformaldehyde, followed by blocking with 50 mM glycine in PBS and normal goat IgG in PBS/2% BSA. The cells were incubated with primary antibodies for 1 h, washed and incubated for 30 min with secondary antibodies, followed by washes. Nuclei were stained with 4′,6-diamidino-2-phenylindole (Cat.No. F6057) (Sigma). Confocal microscopy was done on a Zeiss laser scanning confocal microscope (LSM 510; Carl Zeiss, Jena, Germany) as described previously. ImageJ was used to quantify fluorescence intensity in images of treated individual cells compared to untreated cells with and without Htt96Q-mCherry aggregates and to calculate Mander's coefficients for colocalization studies.
# YAC128 mice = settings: 30 mg/kg/day oral gavage 45 days, vs vehicle-treated HD mice, p=0.0270
# Experimental: 1.5-month-old WT and hemizygous YAC128 mice (males and females in equal proportion) were divided into four groups. […] Mice were divided 4 animals per cage enriched in corn-husk nesting material and paper rolls, each cage representing one individual experiment, for a total of 9 animals per group. Pridopidine was dissolved in deionized sterile water. Animals were weighed every week and the volume of treatment adjusted accordingly. Mice were behaviorally tested in rotarod immediately before commencing treatment and on the day before finishing treatment. Tests were conducted blindly at a set time during the day. Mice were sacrificed 24 h after administration of the final pridopidine dose, and mitochondria isolated from the striatum.
# [3] = tested on: cortico-striatal co-cultures (YAC128); settings: Y128, 1 μM, n=4
# Experimental: For cortico-striatal co-cultures, brains were removed and transferred to Hibernate E medium (Thermo Fisher Sci., catalog no: A1247601) for up to 24 h. […] The cortex and striatum were micro-dissected in ice-cold Hank's balanced salt solution (HBSS; Gibco), then diced and pooled per genotype. […] The dissociated tissues were centrifuged at 145×g for 5 min and the pellet was then triturated with a pipette five to six times. […] The cells were fed with ⅓ volume fresh medium every fifth day.
# The stained cells were washed twice with PBS and fixed with ice-cold methanol for 15 min at room temperature. Mitochondria were visualized using the SP5 confocal microscope (Leica). 8 random areas were sampled. Circularity was determined using ImageJ with an internal plugin.
# [4] = tested on: S1R/BiP colocalization in NIH 3T3 cells
# Experimental: Colocalization of S1R and mitochondria was assessed in NIH 3T3 cells expressing WT myc-Htt20Q or mutant myc-Htt96Q. Cells were then fixed, permeabilized and reacted with mouse anti-myc and rabbit anti-S1R. Images were pseudo-colored to better visualize the colocalization of S1R and MitoTracker.
# as §1, §2
# [5] = tested on: S1R-dependence of eIF2α phosphorylation in HEK 293 cells; settings: 8 h
# Experimental: HEK 293 cells were transfected with plasmids carrying Cas9 and 3 different guide RNAs (gRNA) targeting human Sigma1-R and a control gRNA. Ten days after transfection and selection with puromycin, cell lysates of the pools of selected cells were tested for S1R knockout by immunoblotting. […] Subsequent cloning by dilution produced, after 4 weeks, several clones with complete knockout of Sigma1-R for each gRNA.
# Cells were lysed in PBS containing 1% Triton X-100, 0.5% sodium deoxycholate with protease inhibitors and centrifuged to pellet insoluble aggregates, debris and nuclei. Phosphatase inhibitor cocktail 2 and 3 and 10 mM 0-glycerol phosphate were added to the lysis buffer to inhibit phosphatases for detection of phosphorylated proteins. Supernatants were separated from pellets and incubated in loading buffer for 5 min at 100° C., pellets were incubated for 10 min at 100° C. After SDS-PAGE and transfer to nitrocellulose membrane, blocking was done in 5% low-fat milk and 0.1% Tween-20 in PBS for 1 h. Incubation with the primary antibody was overnight at 4° C. and after three washes in 0.1% Tween-20 in PBS, incubation with the appropriate secondary antibody was for 1 h at room temperature. After washing, enhanced chemiluminescence assay was performed and the membrane was exposed and quantified in a Bio-Rad ChemiDocXRS Imaging System (Bio-Rad, Hercules, CA).
# [6] = tested on: HD-iPSC-derived neural stem cells (HD-NSCs)
# Experimental: Neural induction occurred between day 0 and days 12-15. From day 0 to day 5, cells were maintained in iPSC medium without FGF2 and incubated with 5 μM dorsomorphin and 10 μM SB431542. Medium was changed every other day. […] Between days 12 and 15, fields full of rosettes became morphologically visible. To allow the cells to differentiate, cells were replated in Geltrex® coated 12-well plates. For detaching, 500 μl of 1×Accutase® (Thermo Fisher Sci., catalog no: A1110501) was added to the plate and incubated at 37° C. in 5% CO2, for 15-20 min. Accutase was diluted in DMEM/F12 medium pre-warmed to 37° C. Cells were collected and spun for 3 min at 200×g at room temperature, and resuspended in 200 μl of media into 12-well plates. […] Cells were incubated overnight at 37° C., 5% CO2. Cells were passaged every 2-3 days for no more than 10-12 passages.
# Oxygen consumption rate (OCR) in WT and hemizygous YAC128 cortical/striatal co-cultures and NSCs was measured using Seahorse XFe-24/96 flux analyzers (Seahorse Bioscience, Billerica, MA, USA) following the manufacturer's instructions. […] Pridopidine (0.1, 1 and/or 5 μM) was added, when indicated in the graphs, 24 h before the experiment. The sensor cartridge plate was incubated with immersed sensors in a non-CO2 incubator at 37° C. for ~16 h (overnight). […] The cell medium was aspirated gently to avoid disturbing cell monolayers. […] Accordingly, mitochondrial basal respiration, maximal respiration and ATP production was automatically calculated and recorded by the Seahorse software. Data was normalized for protein levels.
# [7] = tested on: Htt96Q aggregates in S1R+/+ and S1R−/− HEK 293 cells; settings: 24 h
# Experimental: HEK 293 cells were grown on 60 mm plates and transfected for the expression of myc-Htt96Q. Cells were collected 24 hours post-transfection. After washing with 1×PBS cells were resuspended in 100 μl of 1×PBS+ protease inhibitor cocktail. Sonication was done in a sonic bath for 3×10 sec (amp5-6), leaving on ice for 30 sec between the sonications. Cell debris were removed by centrifugation at 16,000×g for 15 min and protein concentration was measured in the supernatant using the BCA method. Samples containing 50 μg total protein were taken and the volume adjusted to 100 μl with 1% SDS in PBS. After incubation for 5 min at 100° C. sample duplicates were loaded on the slots of a nitrocellulose membrane pre-wet with 1% SDS in PBS in a dot-blotting apparatus. Slots were washed twice with 1 ml 1% SDS in PBS and the membrane was transferred to 5% milk blocking solution. Immunoblotting was performed as described above.
# YAC128 striatal neurons = settings: 1 μM
# Experimental: Briefly, plasmid was diluted in TE (in mM: 1 Tris-HCl pH 7.3, 1 mM EDTA), followed by the addition of CaCl2 (in mM: 2.5 CaCl2 in 10 HEPES, pH 7.2). The DNA solution was carefully added to 2×HEBS (in mM: 12 dextrose, 50 HEPES, 10 KCl, 280 NaCl and 1.5 Na2HPO4·2H2O, pH 7.2) while bubbling air through the solution. The mixture was then incubated for 25 min at room temperature. The precipitates were added dropwise to the coverslips in Neurobasal medium and incubated for 80 minutes at 37° C. The DNA-Ca^2+-phosphate precipitates were dissolved with freshly-made dissolution medium (Neurobasal medium with 20 mM HEPES, pH 6.8) and incubated for 7 min at room temperature. The transfected neurons were then washed with Neurobasal medium and transferred back to their original dishes containing conditioned culture medium until DIV12.
compound,measurement,setting,value
"CCCN1CCC(c2cccc(S(C)(=O)=O)c2)CC1 [Pridopidine, 4-[3-(methylsulfonyl)phenyl]-1-propyl-piperidine]","mitochondrial membrane potential (MMP), TMRM release","[1]; WT striatal neurons, 1 μM, p=0.0013",also increases MMP
same,"mitochondrial membrane potential (MMP), TMRM release","[1]; Y128 high mHTT, cortical neurons, 0.1 μM, p=0.015",significantly increases MMP
same,"mitochondrial membrane potential (MMP), TMRM release","[1]; Y128 high mHTT, cortical neurons, 1 μM, p=0.0201",significantly increases MMP
same,"mitochondrial membrane potential (MMP), TMRM release","[1]; Y128 high mHTT, striatal neurons, 0.1 μM, p=0.0407",significantly increases MMP
same,"mitochondrial membrane potential (MMP), TMRM release","[1]; Y128 high mHTT, striatal neurons, 1 μM, p=0.0017",significantly increases MMP
same,"mitochondrial membrane potential (MMP), TMRM release","[1]; Y128 low mHTT, cortical neurons, 0.1 μM, p=0.0008",significantly increases MMP
same,"mitochondrial membrane potential (MMP), TMRM release","[1]; Y128 low mHTT, cortical neurons, 1 μM, p=0.0303",significantly increases MMP
same,"mitochondrial membrane potential (MMP), TMRM release","[1]; Y128 low mHTT, striatal neurons, 0.1 μM, p=0.0274",significantly increases MMP
same,"H2a-GFP accumulation, of the untreated control",[2]; cells positive for mHtt (Htt96Q-mCherry) aggregates,40%
same,"ER stress (H2a-GFP relative intensity), dose dependence","[2]; cells with Htt96Q-mCherry aggregates, from 0.03 to 150 μM",significantly reduces ER stress in a dose-dependent manner
same,H2a-GFP levels,[2]; cells without aggregates or cells expressing Htt20Q-mCherry,does not alter H2a-GFP levels
same,percent of cells that show visible Htt96Q-mCherry aggregates,[2]; expression of Htt96Q-mCherry for 24 h,unchanged
same,"motor performance, latency to fall in accelerated rotarod",YAC128 mice,significant motor improvement
same,mitochondrial morphology (percentage of circular and elongated mitochondria),[3],corrects Y128 morphology to WT levels
same,S1R/BiP colocalization,[4]; cells expressing Htt20Q,does not affect S1R/BiP colocalization
same,S1R/BiP colocalization (BiP-RFP),"[4]; cells expressing Htt96Q aggregates, 150 μM","restores S1R/BiP colocalization in cells expressing Htt96Q aggregates to normal, unstressed levels"
same,colocalization of S1R and BiP-GFP,"[4]; cells expressing myc-Htt96Q, 150 μM",shows a trend towards increasing colocalization
same,eIF2α-P levels,[5]; S1R expressing control clone expressing Htt96Q,significantly reduces eIF2α-P levels
same,concentration of maximal effect on eIF2α phosphorylation,[5]; control clone expressing myc-Htt96Q,3 µM
same,ATP production,[6],shows a trend towards increasing ATP production
same,maximal respiration,[6],also increases
same,mitochondrial basal respiration,[6],also increases mitochondrial basal
same,increase of the amount of Htt96Q in SDS-insoluble aggregates,[7]; S1R+/+ cells,up to 35%
same,effect on Htt96Q in SDS-insoluble aggregates,[7]; S1R−/− cells,abolished
same,velocity of motile mitochondria,"YAC128 striatal neurons; YAC128 neurons, p<0.05",This decrease was ameliorated
same,proportion of motile mitochondria,"YAC128 striatal neurons; YAC128 striatal neurons, p=0.0286",significantly increases the proportion of motile mitochondria

# — patent US12685725B2, “Pridopidine for the treatment of mitochondrial-associated diseases and disorders and endoplasmic reticulum (ER) stress” (PRILENIA NEUROTHERAPEUTICS LTD., priority 2019, dated 2026)
